In test [1] the test system is C. parvum. Nature of the test: NOD SCID gamma (NSG) mouse model of chronic cryptosporidiosis. Type of test: in vivo. As to conditions: oral gavage, 4-day treatment course. From the text:
It is feasible that Cryptosporidium is most susceptible to drug treatments that show the greatest activity in only one of the mode of action assays described above, which would complicate use of these assays for maintaining a diverse anticryptosporidial pipeline. Therefore, to further test the strategy of ensuring a mechanistically diverse pipeline of anticryptosporidials, it was critical to know that compounds belonging to different phenotypic effect clusters (as in Fig. 7) could work in vivo. For this, thirty-one of the thirty-nine compounds were tested in a mouse model of cryptosporidiosis. There is considerable variability in the in vivo efficacy of anticryptosporidials tested in different mouse models[15],[34]–[39], and it remains unknown which animal models will best predict drug efficacy in humans. […] The piperazine-based compound MMV665917, however, is efficacious in both the acute IFN-γ KO and chronic NSG mouse models. […] Given that the goal of this study was to determine if compounds belonging to different phenotypic clusters might be active in vivo, we assessed in vivo efficacy using the stringent NSG mouse model.
The NOD SCID gamma mouse model for treatment of established cryptosporidiosis was reported previously. […] Oocyst shedding in feces was monitored by qPCR for 18s rRNA gene with the primers Cp18s forward and Cp18s reverse. […]

The test system of test [2] is cryptosporidiosis. More on the design: method as in PMID 17253532. The conditions noted are these: cited from earlier work.
Test [3] concerns cryptosporidiosis. More on the design: method as in PMID 19954529. As to conditions: versus approximately one-quarter of untreated children; cited from earlier work.
Test [4] relates to Cryptosporidium. More on the design: method as in earlier work. The conditions noted are these: ref Castellanos-Gonzalez, et al. 2013. JID. and Love, et al. 2017. PLoS NTD.; cited from earlier work.
Test [5] relates to Cryptosporidium. Further details: method as in Gorla, et al. 2014. AAC. As to conditions: ref Gorla, et al. 2014. AAC.; cited from earlier work.
The test system of test [6] is Cryptosporidium. Further details: method as in Lee, et al. 2018. AAC. As to conditions: ref Lee, et al. 2018. AAC; cited from earlier work.
The test system of test [7] is Cryptosporidium. Further details: method as in Downey, et al. 2008. AAC. The conditions noted are these: ref Downey, et al. 2008. AAC.; cited from earlier work.
Test [8] concerns C. parvum. Nature of the test: Time-lapse microscopy of live C. parvum egress. The conditions noted are these: 2 × EC90 (1.3 µM total).
Method: Cells were then imaged live with 5 min intervals using Nomarski optics and a ×60 oil objective (1.4 NA). […] After 3 h, cells were gently washed with warm complete media to remove oocyst shells before adding either compound or DMSO. Tiled 2 × 2 images were taken live at 20 min intervals using a ×40 dry objective (0.7 NA).

On to `CC(=O)Oc1ccccc1C(=O)Nc1ncc([N+](=O)[O-])s1` [Nitazoxanide], for which the “efficacy in the NSG mouse model (reduction in fecal oocyst shedding)” value in the test with C. parvum [1] is given as “no effect”. Further, the “efficacy in AIDS patients” value in the test with cryptosporidiosis [2] is “equivalent to a placebo”. Further, the “improvement after 1 week of treatment in young children” value with cryptosporidiosis [3] was “just over half of children studied”.

Regarding `CCOc1ccc2cc(-c3nn(CC4CCN(C)CC4)c4ncnc(N)c34)ccc2c1` [BKI-1294], the “anticryptosporidial activity in SCID beige mice” value in the test with Cryptosporidium [4] is “previously demonstrated anticryptosporidial activity”.

On to `CC(=NOCCN)c1cccc(C(C)(C)NC(=O)Nc2ccc(Cl)c(C(F)(F)F)c2)c1` [P257], for which the “efficacy in the acute IL-12 knockout mouse model of cryptosporidiosis” value with Cryptosporidium [5] is reported as “efficacious”.

As to `CCOc1ccc2cc(-c3nn(CC4CCN(C)CC4)c4ncnc(N)c34)ccc2n1` [BKI-1369], the “anticryptosporidial efficacy in gnotobiotic piglet model” value in the test with Cryptosporidium [6] is “previously demonstrated anticryptosporidial efficacy”.

As to `Cc1cc(/C=C/c2ccc3cc(N(C)C)ccc3[n+]2C)c(C)n1-c1ccccc1` [Pyrvinium pamoate], in the test with Cryptosporidium [7], the “anticryptosporidial activity in neonatal mouse model” value was “previously demonstrated anticryptosporidial activity”.

Turning to `Cc1cccc(-n2ncc3c(O)nc(-n4nc(C)cc4NC(=O)c4cc5ccccc5o4)nc32)c1` [C-1], in the test on C. parvum [8], the “parasite egress during live microscopy” value is recorded as “inhibited parasite egress”.

Values taken from publication PMC6478823, “A suite of phenotypic assays to ensure pipeline diversity when prioritizing drug-like Cryptosporidium growth inhibitors” (Nature Communications, 2019).
